Molecules are shown by their SMILES. Read-outs that look alike come from different tables or passages of the source.

Data set [1] is described as follows: Solubility Analyses (Example 1): dissolution in water. Type of data set: physicochemical.
The conditions of data set [2]: at 25° C., cited from earlier work.

In the case of `COc1ccc2[nH]cc(CCNC(C)=O)c2c1` [melatonin], the dissolution in water result in data set [1] (melatonin 1.2% (w/w) in the absence of caffeine) is “did not completely dissolve”; in data set [1] (melatonin 2% (w/w) in the absence of caffeine) it was “did not dissolve completely”. The solubility in water entry in data set [2] is on record as “approximately 0.01 g/100 mL”; in data set [2] (same value given in percent), “approximately 0.01%”.
